# Where two headings read alike, the source gives them in different places.
# How the values were obtained:
# [1] = therapeutic total cmax; ref PMID; cited from earlier work
# [2] = system: rat, mouse, dog, and cynomolgus monkey; set-up: method as in Manning and Swartz, 1995; conditions: ref Manning and Swartz, 1995; cited from earlier work
# patients = conditions: phase I clinical trial, ref McKenzie et al., 1995, cited from earlier work
# [3] = system: primary human hepatocytes (PHH) 3D spheroids
# clinical DILI in man = conditions: cited from earlier work
# [4] = cited from earlier work; for Extent of hepatic metabolism: ref DrugBank and Prescribers' Digital Reference database
# rats = system: rats; set-up: method as in McGill et al., 2012b; conditions: in vivo; ref McGill et al., 2012b; cited from earlier work
# PHH 2D sandwich cultures = conditions: PHH 2D sandwich cultures, 100x Cmax; ref Xu 2008; cited from earlier work
# [5] = system: PHH spheroids (hanging-drop); conditions: PHH hanging-drop spheroids, 100x Cmax; ref Proctor 2017; cited from earlier work
# [6] = system: rhesus monkey primary hepatocyte 3D spheroids; assay: Animal hepatocyte spheroid hepatotoxicity (ATP viability, 14 days), rhesus monkey; assay type: cell-based
# [7] = system: CD1 mouse primary hepatocyte 3D spheroids; assay: Animal hepatocyte spheroid hepatotoxicity (ATP viability, 14 days), CD1 mouse; assay type: cell-based
# [8] = system: Gottingen minipig primary hepatocyte 3D spheroids; assay: Animal hepatocyte spheroid hepatotoxicity (ATP viability, 14 days), minipig; assay type: cell-based; conditions: minipig hepatocyte spheroids, 1×, 5×, 20× human cmax, 14 days
# [9] = system: Wistar rat primary hepatocyte 3D spheroids; assay: Animal hepatocyte spheroid hepatotoxicity (ATP viability, 14 days), Wistar rat; assay type: cell-based
# [10] = system: C57BL/6 mouse primary hepatocyte 3D spheroids; assay: Animal hepatocyte spheroid hepatotoxicity (ATP viability, 14 days), C57BL/6 (BL6) mouse; assay type: cell-based
# [11] = Animal hepatocyte spheroid hepatotoxicity (ATP viability, 14 days), minipig; assay type: cell-based, Gottingen minipig; conditions: Gottingen, primary minipig hepatocyte 3D spheroids; minipig spheroids, no indication of hepatotoxicity
# in vitro = conditions: human
# [12] = DILI classification score, ref Suzuki et al. (2010)
# [13] = FDA drug labeling DILI score, ref Chen et al., 2011
# [14] = clinical DILI classification in man (POS/NEG)
# [15] = clinical DILI classification used in this study, Supplementary Table 2, ref Chen et al., 2011, Guo et al., 2005, O'Brien et al., 2006, Sakatis et al., 2012, Suzuki et al., 2010, Xu et al., 2008
# [16] = clinical DILI classification, Supplementary Table 1, ref Chen et al., 2011, Guo et al., 2005, O'Brien et al., 2006, Sakatis et al., 2012, Suzuki et al., 2010, Xu et al., 2008
# [17] = reported pattern of liver damage, Supplementary Table 2, ref literature
# [18] = human liver, ref Yoon et al., 2016
structure (smiles),measurement,setting,value
O=c1[nH]c(=O)n([C@@H]2O[C@H](CO)[C@@H](O)[C@@H]2F)cc1I [Fialuridine],Cmax,[1],640 nM
same,indications of hepatotoxicity in preclinical species,[2],did not show indications of hepatotoxicity
same,volunteers with lactic acidosis and acute liver failure,patients; few weeks after commencing therapy,7 out of 15
same,volunteers who died,patients; of the 7 with acute liver failure,5
same,Chemically defined spheroids (this study) 20x,[3],Positive
same,hepatotoxicity evaluation in CD-spheroids,[3],successfully detect fialuridine hepatotoxicity at clinically relevant concentrations
same,Suzuki et al. (2010),clinical DILI in man; [12],2
same,FDA (Severity),"clinical DILI in man; FDA drug labeling DILI concern, ref Chen et al., 2011",most DILI concern
same,FDA (0-8),clinical DILI in man; [13],Discontinued
same,DILI in vivo,clinical DILI in man; [14],POS
same,Classified as,clinical DILI in man; [15],POS
same,DILI in vivo,clinical DILI in man; [16],POS
same,O'Brien et al. (2003),"clinical DILI in man; clinical hepatotoxicity classification, ref O'Brien et al. (2003)",Severely
same,Type of DILI,clinical DILI in man; [17],"Hepatocellular injury, Cholestatic injury or Mixed hepatitis"
same,Extent of hepatic metabolism,[4],Minimal
CC(=O)Nc1ccc(O)cc1 [Acetaminophen],acetaminophen-induced hepatotoxicity in rats,rats,resistant to acetaminophen-induced hepatotoxicity
same,2Dsw (Xu 2008) 100x,PHH 2D sandwich cultures,Positive
same,Hanging-drop spheroids (Proctor 2017) 100x,[5],Positive
same,fraction inactivated by sulfation or glucuronidation,[4]; [18],around 90%
same,fraction metabolically activated by CYP2E1 and CYP3A4 to NAPQI,[4]; [18],5%–10%
same,Extent of hepatic metabolism,[4],Extensive
CCc1nn(CCCN2CCN(c3cccc(Cl)c3)CC2)c(=O)n1CCOc1ccccc1 [Nefazodone],hepatotoxicity evaluation in spheroids,"[6]; rhesus monkey hepatocyte spheroids, 1×, 5×, 20× human cmax, 14 days",flagged as hepatotoxic
same,hepatotoxicity evaluation in spheroids,"[7]; CD1 mouse hepatocyte spheroids, 1×, 5×, 20× human cmax, 14 days",flagged as hepatotoxic
same,Cmax,[1],3950 nM
same,hepatotoxicity evaluation in spheroids,[8],flagged as hepatotoxic
same,hepatotoxicity evaluation in spheroids,"[9]; Wistar rat hepatocyte spheroids, 1×, 5×, 20× human cmax, 14 days",flagged as hepatotoxic
same,2Dsw (Xu 2008) 100x,PHH 2D sandwich cultures,Positive
same,Chemically defined spheroids (this study) 20x,[3],Positive
same,hepatotoxicity evaluation in CD-spheroids,"[3]; human, 14 days",severe toxicity at 5× and 20× of the therapeutic exposure levels
same,Guo et al. (2005),"clinical DILI in man; DILI classification score, ref Guo et al. (2005)",3
same,Suzuki et al. (2010),clinical DILI in man; [12],3
same,FDA (0-8),clinical DILI in man; [13],8
same,DILI in vivo,clinical DILI in man; [14],POS
same,Classified as,clinical DILI in man; [15],POS
same,DILI in vivo,clinical DILI in man; [16],POS
same,Xu et al. (2008),"clinical DILI in man; clinical DILI classification, ref Xu et al. (2008)",Positive
same,Sakatis et al. (2012),"clinical DILI in man; clinical hepatotoxicity classification, ref Sakatis et al. (2012)",Hepatotoxic
same,Type of DILI,clinical DILI in man; [17],Hepatocellular injury
same,Clinical DILI classification (Figure 5),"clinical DILI in man; structural analogue pairs, Figure 5, ref Chen et al., 2011, Xu et al., 2008 and others",DILI positive
same,Hanging-drop spheroids (Proctor 2017) 100x,[5],Positive
same,hepatotoxicity evaluation in spheroids,"[10]; C57BL/6 mouse hepatocyte spheroids, 1×, 5×, 20× human cmax, 14 days",flagged as hepatotoxic
same,Extent of hepatic metabolism,[4],Extensive
Cc1ccc(-c2cc(C(F)(F)F)nn2-c2ccc(S(N)(=O)=O)cc2)cc1 [Celecoxib],viability,"[6]; monkey spheroids, 20× cmax",< 2 % of respective controls
same,viability,"[7]; CD1 mouse spheroids, 20× cmax",< 2 % of respective controls
same,Cmax,[1],2550 nM
same,viability at 14 days,[11],> 100%
same,viability,"[9]; rat spheroids, 20× cmax",< 2 % of respective controls
same,Chemically defined spheroids (this study) 20x,[3],Positive
same,Classified as,clinical DILI in man; in vivo,POS
same,Clinical DILI class (panel heading of Figure 4),clinical DILI in man; in vivo,High DILI concern
same,DILI in vivo,clinical DILI in man; in vivo,POS
same,FDA (0-8),clinical DILI in man; in vivo,3
same,Suzuki et al. (2010),clinical DILI in man; in vivo,1
same,Type of DILI,clinical DILI in man; in vivo,Hepatocellular injury or Cholestatic injury
same,"viability at 14 days, 20 × cmax",in vitro,< 2%
same,viability,"[10]; C57BL/6 mouse spheroids, 20× cmax",< 2 % of respective controls
same,Extent of hepatic metabolism,[4],Extensive

# Source: PMC5974779, “Prediction of Drug-Induced Hepatotoxicity Using Long-Term Stable Primary Hepatic 3D Spheroid Cultures in Chemically Defined Conditions” (Toxicological Sciences, 2018)
